These results are taken from ChEMBL document CHEMBL2346530, “Discovery of non-peptide inhibitors of Plasmepsin II by structure-based virtual screening” (Bioorg Med Chem Lett, 2013).

In assay [1] the target is Plasmepsin II (Plasmodium falciparum) (UniProt P46925). Kind of assay: Inhibition of recombinant Plasmodium falciparum plasmepsin 2 expressed in Escherichia coli using DABCYL-Glu-Arg-Nle-Phe-Leu-Ser-Phe-Pro-EDANS as substrate at 10 uM incubated for 40 mins prior to substrate addition measured after 10 mins by FRET-based fluorometric analysis.
The target in a further assay is Plasmepsin II (Plasmodium falciparum, UniProt P46925). The experiment in a line: Inhibition of recombinant Plasmodium falciparum plasmepsin 2 expressed in Escherichia coli using DABCYL-Glu-Arg-Nle-Phe-Leu-Ser-Phe-Pro-EDANS as substrate incubated for 40 mins prior to substrate addition measured after 10 mins by FRET-based fluorometric analysis.
Plasmepsin II, sequence (P46925 whole entry): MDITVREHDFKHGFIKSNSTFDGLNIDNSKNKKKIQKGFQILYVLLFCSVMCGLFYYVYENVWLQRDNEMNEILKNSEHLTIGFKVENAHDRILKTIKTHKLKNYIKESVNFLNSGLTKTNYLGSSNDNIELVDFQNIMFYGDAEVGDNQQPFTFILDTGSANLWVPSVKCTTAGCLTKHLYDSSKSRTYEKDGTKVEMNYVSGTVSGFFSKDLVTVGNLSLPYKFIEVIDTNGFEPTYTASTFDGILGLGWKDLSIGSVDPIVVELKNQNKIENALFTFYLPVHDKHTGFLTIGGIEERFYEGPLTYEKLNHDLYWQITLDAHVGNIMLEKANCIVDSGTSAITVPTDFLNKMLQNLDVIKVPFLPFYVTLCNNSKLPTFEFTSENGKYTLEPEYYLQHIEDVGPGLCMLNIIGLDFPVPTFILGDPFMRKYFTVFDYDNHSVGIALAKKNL

Plasmepsin II (Plasmodium falciparum), sequence (P46925 125-453 limits assumed): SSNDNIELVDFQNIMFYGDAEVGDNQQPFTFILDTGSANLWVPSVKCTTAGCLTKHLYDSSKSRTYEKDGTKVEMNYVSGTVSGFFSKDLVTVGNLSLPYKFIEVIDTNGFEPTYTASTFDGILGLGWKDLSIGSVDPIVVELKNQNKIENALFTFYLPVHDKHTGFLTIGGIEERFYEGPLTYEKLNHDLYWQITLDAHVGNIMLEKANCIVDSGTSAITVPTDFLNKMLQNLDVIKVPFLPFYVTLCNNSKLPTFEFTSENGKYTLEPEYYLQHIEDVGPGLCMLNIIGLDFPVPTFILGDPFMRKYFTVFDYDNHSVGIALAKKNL

What is called inhibition is the change of the read-out against control, counted positive when it falls. The IC50 is the concentration needed to halve the response being measured. Consider `Cc1ccccc1N/C(=N\N=C/c1ccc2ccc3ccc(/C=N\N=C(/Nc4ccccc4C)c4ccccn4)nc3c2n1)c1ccccn1`, for which the inhibition in assay [1] was found to be 67.7%. For the same compound, the IC50 at Plasmepsin II was 4.62 µM.
The matching figures for `Cc1ccc(S(=O)(=O)Nc2ccccc2CNc2cnc3ccccc3c2)cc1`: 60.6% and 7 µM.
The matching figures for `N=C(S)NN/C(=C\c1nc(-c2ccccn2)cc2ccccc12)c1ccc(Cl)cc1`: 55% and 6.45 µM.
Regarding `O=C(CN(c1cccc(Br)c1)S(=O)(=O)c1ccccc1)Nc1ccc(CSc2ccccc2)cc1`, in assay [1], the inhibition turned out to be 54.7%. For the same compound, the IC50 on Plasmepsin II turned out to be 8.99 µM.
The matching figures for `OC(CNCc1ccccc1)Cn1c2ccc(Cl)cc2c2cc(Cl)ccc21` (stereo not given): 52% and 9.47 µM.
